Consider 16 compounds from US20210255193A1, “LYSINE REACTIVE PROBES AND USES THEREOF” (The Scripps Research Institute, priority 2017, published 2021).

Holding throughout (experiment): competitive isoTOP-ABPP
Common to all, as to assay type: binding

Test [1] deals with T1, TPMT Thiopurine S-methyltransferase (Homo sapiens, UniProt P51580).
T1 construct: isoTOP-ABPP experiments performed in cell lysates (in vitro); endogenous in cells; host or cells: soluble proteome of human cancer cell lines (MDA-MB-231; Ramos and Jurkat also prepared)
T1 sequence (P51580 1-245): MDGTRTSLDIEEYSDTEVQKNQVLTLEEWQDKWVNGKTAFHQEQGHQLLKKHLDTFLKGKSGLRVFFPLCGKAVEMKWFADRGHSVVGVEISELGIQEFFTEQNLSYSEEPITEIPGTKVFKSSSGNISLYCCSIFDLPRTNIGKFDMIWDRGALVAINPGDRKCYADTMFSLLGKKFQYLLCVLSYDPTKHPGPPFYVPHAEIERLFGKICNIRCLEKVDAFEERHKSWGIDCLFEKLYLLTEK
Set-up: key to isoTOP-ABPP reactivity ratio at lysine P51580_K32: R = MS1 peak area ratio, DMSO (heavy) / compound-treated (light). The note with it: 50 uM, 231 sol, in vitro; for R value (DMSO/fragment) for probe 1 labeling: P51580_K32. The procedure:
(§1) In vitro covalent fragment treatment for isoTOP-ABPP. All compounds were made up as solutions in DMSO (100×) and were used at a final concentration of 50 μM for activated esters and 100 μM for guanidinylating agents. For each profiling sample, 0.5 ml of lysate was treated with 5 μl of the 100× compound stock solution or 5 μl of DMSO. Samples were treated with activated esters for
(§2) STP-alkyne labeling and click chemistry. For concentration-dependent reactivity measurements by isoTOP-ABPP, 0.5 ml proteome aliquots were treated at ambient temperature with 1 mM STP-alkyne 1 (5 μl of 100 mM stock in DMSO) and 0.1 mM STP alkyne 1 (5 μl of 10 mM stock in DMSO), respectively. For competitive isoTOP-ABPP, after in vitro fragment treatment (detailed above), the samples were labeled for 1 h at ambient temperature with 0.1 mM STP-alkyne 1 (5 μl of 10 mM stock in DMSO). Samples were conjugated by copper-mediated azide-alkyne cycloaddition (CuAAC) to either the light (1 mM STP-alkyne or fragment treated) or heavy (0.1 mM STP-alkyne or DMSO treated) TEV tags (10 μl of 5 mM stocks in DMSO, final concentration=100 μM) using tris(2-carboxyethyl)phosphine hydrochloride
(§3) R value calculation and processing. The ratios of light and heavy MS1 peaks for each unique peptide were quantified with a CIMAGE software using default parameters (3 MS1 acquisitions per peak and signal to noise threshold set to 2.5). For reactivity measurements by isoTOP-ABPP, the R value was calculated from the ratio of MS1 peak areas, comparing the 1 mM STP alkyne sample (light TEV tag) with the 0.1 mM STP alkyne sample (heavy TEV tag). For competitive isoTOP-ABPP, the R value was calculated from the ratio of MS1 peak areas, comparing the DMSO treated sample (heavy TEV tag) with the compound treated sample (light TEV tag). […] Ratios for unique peptide entries are calculated for each experiment; overlapping peptides with the same modified lysine (for example, different charge states, MudPIT chromatographic steps or tryptic termini) are grouped together and the median ratio is reported as the final ratio (R). The peptide ratios reported by CIMAGE were further filtered to ensure the removal or correction of low-quality ratios in each individual data set. The quality filters applied were the following: removal of half tryptic peptides; for ratios with high standard deviations from the median (90% of the median or above) the lowest ratio was taken instead of the median; removal of peptides with R=20 and only a single MS2 event triggered during the elution of the parent ion; manual annotation of all the peptides with ratios of 20, removing any peptides with low quality elution profiles that remained after the previous curation steps (only done for competitive isoTOP-ABPP).
(§4) Cross-data processing for fragment screening. For compound treated samples, biological replicates of the same condition were averaged, if the standard deviation was below 60% of the mean; otherwise, for lysines with at least one R value <4 for a particular compound, the lowest value of the ratio set was taken. For lysines, where all R values for a particular compound were ≥4, the average was reported. For peptides containing several possible modified lysines, the lysine with the highest number of quantification events was used for analysis and the remaining, redundant peptides were reported as alternative modification sites. Peptides included in the aggregate dataset (those used for further bioinformatics and statistical analyses) were required to have been quantified in 2 experiments for competitive isoTOP-ABPP. Lysines were categorized as liganded, if they had at least one ratio R≥4 (hit fragments). For liganded lysines with R=20 for all liganding events, lysines were required to have been quantified with R=20 in two separate experiments and were further required to have been quantified with R<20 in one additional experiment.

Test [2] concerns the target T2, ECH1 Delta(3,5)-Delta(2,4)-dienoyl-CoA isomerase, mitochondrial (Homo sapiens, UniProt Q13011).
T2 construct: isoTOP-ABPP experiments performed in cell lysates (in vitro); endogenous in cells; host or cells: soluble proteome of human cancer cell lines (MDA-MB-231, Ramos, Jurkat)
T2 sequence (Q13011 34-328): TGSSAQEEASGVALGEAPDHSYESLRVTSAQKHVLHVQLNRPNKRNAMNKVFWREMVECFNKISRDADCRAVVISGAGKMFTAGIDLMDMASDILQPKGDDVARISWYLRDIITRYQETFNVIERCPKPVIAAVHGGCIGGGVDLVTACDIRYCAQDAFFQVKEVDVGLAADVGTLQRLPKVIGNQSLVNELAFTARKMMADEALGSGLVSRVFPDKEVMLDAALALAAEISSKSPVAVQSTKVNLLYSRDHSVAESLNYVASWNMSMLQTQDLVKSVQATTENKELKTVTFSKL
Set-up: key to isoTOP-ABPP reactivity ratio at lysine Q13011_K112: R = MS1 peak area ratio, DMSO (heavy) / compound-treated (light); capped at 20. As to conditions: for R value (DMSO/fragment) for probe 1 labeling: Q13011_K112; for R value (DMSO/fragment) for probe 1 labeling / isoTOP-ABPP reactivity ratio at lysine Q13011_K112: 231 sol. How it is done:
as §1, §2, §3, §4

Test [3] concerns the target T3, HDHD3 Haloacid dehalogenase-like hydrolase domain-containing protein 3 (Homo sapiens, UniProt Q9BSH5).
T3 construct: isoTOP-ABPP experiments performed in cell lysates (in vitro); endogenous in cells; host or cells: soluble proteome of human cancer cell lines (MDA-MB-231; Ramos and Jurkat also prepared)
T3 sequence (Q9BSH5 1-251): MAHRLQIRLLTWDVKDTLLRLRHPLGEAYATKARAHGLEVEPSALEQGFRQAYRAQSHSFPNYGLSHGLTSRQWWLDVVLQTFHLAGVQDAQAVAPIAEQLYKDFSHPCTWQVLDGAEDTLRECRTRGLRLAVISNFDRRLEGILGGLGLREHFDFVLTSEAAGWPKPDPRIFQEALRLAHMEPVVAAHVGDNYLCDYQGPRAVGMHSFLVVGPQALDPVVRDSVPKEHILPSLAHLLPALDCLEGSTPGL
Set-up: key to isoTOP-ABPP reactivity ratio at lysine Q9BSH5_K15: R = MS1 peak area ratio, DMSO (heavy) / compound-treated (light). The note with it: for R value (DMSO/fragment) for probe 1 labeling: Q9BSH5_K15; for R value (DMSO/fragment) for probe 1 labeling / isoTOP-ABPP reactivity ratio at lysine Q9BSH5_K15: 231 sol. How it is done:
as §1, §2, §3, §4

Turning to `O=C(CCc1cn(-c2ccccc2)nc1-c1ccccc1)Oc1c(F)c(F)c(F)c(F)c1F` [fragment 19, Pentafluorophenyl 3-(1,3-diphenyl-1H-pyrazol-4-yl)propanoate], the “R value (DMSO/fragment) for probe 1 labeling” value (shortened to “R value (DMSO/fragment)”) worked out at 1.3 in test [1]; 4.7 in test [2] (50 uM, in vitro); 20.0 in test [3] (50 uM, in vitro).

On to `O=C(Oc1c(F)c(F)c(F)c(F)c1F)C(c1ccccc1)c1ccccc1` [fragment 20, Pentafluorophenyl 2,2-diphenylacetate], for which the “R value (DMSO/fragment)” value in test [1] amounted to 0.9; in test [2] (50 uM, in vitro), 1.4; in test [3] (50 uM, in vitro) it was 1.1.

For `O=C(Oc1c(F)c(F)c(F)c(F)c1F)c1cc(C(F)(F)F)cc(C(F)(F)F)c1` [fragment 21, Pentafluorophenyl 3,5-bis(trifluoromethyl)benzoate], the “R value (DMSO/fragment)” value in test [1] turned out to be 4.9; in test [2] (50 uM, in vitro), 1.5; in test [3] (50 uM, in vitro) it was 1.0.

Regarding `Cn1cc(CC(=O)Oc2c(F)c(F)c(F)c(F)c2F)c2ccccc21` [fragment 22, Pentafluorophenyl 2-(1-methyl-1H-indol-3-yl)acetate], the “R value (DMSO/fragment)” value in test [1] stood at 1.3; in test [2] (50 uM, in vitro), 1.5; in test [3] (50 uM, in vitro) it was 1.1.

On to `COc1cc(CCC(=O)Oc2c(F)c(F)c(F)c(F)c2F)cc(OC)c1OC` [fragment 23, Pentafluorophenyl 3-(3,4,5-trimethoxyphenyl)propanoate], for which the “R value (DMSO/fragment)” value in test [1] came to 6.4; in test [2] (50 uM, in vitro), 4.7; in test [3] (50 uM, in vitro) it was 1.3.

Consider `O=C(Oc1c(F)c(F)c(F)c(F)c1F)C1CCN(C(=O)OCc2ccccc2)CC1` [fragment 24, 1-Benzyl 4-(pentafluorophenyl) piperidine-1,4-dicarboxylate], for which the “isoTOP-ABPP reactivity ratio at lysine P51580_K32” value in test [1] came to 1.0. In test [3] (50 uM, in vitro), the “isoTOP-ABPP reactivity ratio at lysine Q9BSH5_K15” value is recorded as 2.3.

For the compound `O=C(Oc1c(F)c(F)c(F)c(F)c1F)c1ccc2ccccc2n1` [fragment 25, Pentafluorophenyl quinoline-2-carboxylate], in test [1], the “isoTOP-ABPP reactivity ratio at lysine P51580_K32” value was found to be 2.9. The “isoTOP-ABPP reactivity ratio at lysine Q13011_K112” value in test [2] (50 uM, in vitro) came to 2.7. In addition, the “isoTOP-ABPP reactivity ratio at lysine Q9BSH5_K15” value in test [3] (50 uM, in vitro) is reported as 4.0.

Regarding `O=C(CCc1coc2cc(F)ccc2c1=O)Oc1c(F)c(F)c(F)c(F)c1F` [fragment 26, Pentafluorophenyl 3-(7-fluoro-4-oxo-4H-chromen-3-yl)propanoate], the “isoTOP-ABPP reactivity ratio at lysine P51580_K32” value in test [1] is 1.0. Moreover, the “isoTOP-ABPP reactivity ratio at lysine Q9BSH5_K15” value in test [3] (50 uM, in vitro) is listed as 3.4.

On to `O=C(CN1C(=O)c2ccccc2C1=O)Oc1c(F)c(F)c(F)c(F)c1F` [fragment 27, Pentafluorophenyl 2-(1,3-dioxoisoindolin-2-yl)acetate], for which the “isoTOP-ABPP reactivity ratio at lysine P51580_K32” value in test [1] is given as 1.3. Further, in test [2] (50 uM, in vitro), the “isoTOP-ABPP reactivity ratio at lysine Q13011_K112” value worked out at 2.7. In addition, the “isoTOP-ABPP reactivity ratio at lysine Q9BSH5_K15” value in test [3] (50 uM, in vitro) turned out to be 2.3.

For the compound `CCn1cc(C(=O)Oc2c(F)c(F)c(F)c(F)c2F)c(=O)c2ccc(C)nc21` [fragment 28, Pentafluorophenyl 1-ethyl-7-methyl-4-oxo-1,4-dihydro-1,8-naphthyridine-3-carboxylate], in test [1], the “isoTOP-ABPP reactivity ratio at lysine P51580_K32” value came to 1.1. The “isoTOP-ABPP reactivity ratio at lysine Q13011_K112” value in test [2] (50 uM, in vitro) worked out at 1.8. Further, in test [3] (50 uM, in vitro), the “isoTOP-ABPP reactivity ratio at lysine Q9BSH5_K15” value was 13.8.

Take `O=C(CCc1cn(-c2ccccc2)nc1-c1ccccc1)Oc1ccc([N+](=O)[O-])cc1[N+](=O)[O-]` [fragment 29, 2,4-Dinitrophenyl 3-(1,3-diphenyl-1H-pyrazol-4-yl)propanoate]: the “isoTOP-ABPP reactivity ratio at lysine P51580_K32” value in test [1] was found to be 1.4. Also, the “isoTOP-ABPP reactivity ratio at lysine Q13011_K112” value in test [2] (50 uM, in vitro) turned out to be 1.0. Also, the “isoTOP-ABPP reactivity ratio at lysine Q9BSH5_K15” value in test [3] (50 uM, in vitro) stood at 20.0.

As to `O=C(Oc1ccc([N+](=O)[O-])cc1[N+](=O)[O-])C(c1ccccc1)c1ccccc1` [fragment 30, 2,4-Dinitrophenyl 2,2-diphenylacetate], the “isoTOP-ABPP reactivity ratio at lysine P51580_K32” value in test [1] is reported as 1.5. The “isoTOP-ABPP reactivity ratio at lysine Q13011_K112” value in test [2] (50 uM, in vitro) turned out to be 0.9. Further, the “isoTOP-ABPP reactivity ratio at lysine Q9BSH5_K15” value in test [3] (50 uM, in vitro) was 20.0.

For `O=C(Oc1ccc([N+](=O)[O-])cc1[N+](=O)[O-])c1cc(C(F)(F)F)cc(C(F)(F)F)c1` [fragment 31, 2,4-Dinitrophenyl 3,5-bis(trifluoromethyl)benzoate], in test [1], the “isoTOP-ABPP reactivity ratio at lysine P51580_K32” value amounted to 2.5. The “isoTOP-ABPP reactivity ratio at lysine Q13011_K112” value in test [2] (50 uM, in vitro) is reported as 1.2. Moreover, the “isoTOP-ABPP reactivity ratio at lysine Q9BSH5_K15” value in test [3] (50 uM, in vitro) stood at 4.6.

Turning to `Cn1cc(CC(=O)Oc2ccc([N+](=O)[O-])cc2[N+](=O)[O-])c2ccccc21` [fragment 32, 2,4-Dinitrophenyl 2-(1-methyl-1H-indol-3-yl)acetate], the “isoTOP-ABPP reactivity ratio at lysine P51580_K32” value in test [1] turned out to be 2.5. Also, in test [2] (50 uM, in vitro), the “isoTOP-ABPP reactivity ratio at lysine Q13011_K112” value amounted to 1.0. Also, the “isoTOP-ABPP reactivity ratio at lysine Q9BSH5_K15” value in test [3] (50 uM, in vitro) is recorded as 6.7.

Consider `O=C(Oc1ccc([N+](=O)[O-])cc1[N+](=O)[O-])c1ccc2ccccc2n1` [fragment 35, 2,4-Dinitrophenyl quinoline-2-carboxylate], for which the “isoTOP-ABPP ratio (R) at liganded lysine Q13011_K112” value in test [2] (50 uM, in vitro, sol, 231) amounted to 1.0. Moreover, the “isoTOP-ABPP ratio (R) at liganded lysine Q9BSH5_K15” value in test [3] (50 uM, in vitro, sol, 231) turned out to be 7.0.

On to `COC(=O)NC(=NC(=O)OCC1c2ccccc2-c2ccccc21)n1cccn1` [fragment 49, N-Methoxycarbonyl-N′-9-fluorenylmethoxycarbonyl-pyrazole-1-carboxamidine], for which the “isoTOP-ABPP ratio, lysine Q13011_K112” value in test [2] (100 uM_231_sol_in vitro) was 1.1. Besides, the “isoTOP-ABPP ratio, lysine Q9BSH5_K15” value in test [3] (100 uM_231_sol_in vitro) turned out to be 3.5.
